From patent US10506810B2, “Synergistic herbicidal composition” (QINGDAO KINGAGROOT RESISTANT WEED MANAGEMENT CO., LTD., priority 2015, dated 2019)
Like-named read-outs stand apart in the source and are kept apart here.

Legend:
Assay in all cases: pot-culture method, stem and leaf treatment in greenhouse, fresh weight inhibition rate 20 days after treatment (Gowing method)
Assay type in all cases: in vivo
Alopecurus japonicus = tested on: Alopecurus japonicus
Procedure: (§1) Capsella bursa-pastoris, Myosoton aquaticum, Alopecurus japonicus were collected from corn fields in Huangdao Experimental Base of Shandong Province.
(§2) The above weeds were cultivated by a pot culture method. […] Full and uniform weed seeds were selected, soaked in warm water at 25° C. for 6 hours, and germinated in a 28° C. biochemical incubator (darkness). […] A certain amount of water was added to the enamel pan regularly to keep the soil moist.
(§3) The technical materials were all dissolved in acetone, and diluted with an aqueous solution containing 0.1% emulsifier T-80. The dilution is performed as required.
(§4) A ratio of the active ingredient A to the active ingredient B and amounts thereof in each group depends on the characteristics and toxicity of the two agents, as well as the main application purpose of a corresponding formulation. Based on the pre-tests in this study, the dosage of the active ingredient A and the active ingredient B applied alone and in combination were shown in the tables, and a total 15 groups were designed. Water containing the solvent and emulsifier same with the above groups but free of the agents was used as a blank control.
(§5) 3 pots with 20 weed seeds per pot were treated in one treatment with […] per treatment, that is, a total of 60 weeds were treated in one treatment.
(§6) The agents were used for only once in the experiment. In the stage of weeds with 2 leaves and 1 core, the weeds were thinned out to maintain 15 weeds per pot and 45 weeds for each treatment, then continued to be cultured to 3-5-leaves stage of Capsella bursa-pastoris and Myosoton aquaticum, and 3-leaves and 1-core stage of Alopecurus japonicus, and treated.
(§7) The well-cultured weeds were evenly placed on a platform with an area of 0.5 m^2, and a solution of agents was sprayed on the stems and leaves thereof by the 3WP-2000-type walking spray tower at a dosage of 30 kg/ha and at a spray pressure of 0.3 MPa. After all the solution was sprayed, the valve was closed. After 30 seconds, the door of the spray tower was opened, and the nutritional bowl was taken out. Then the valve was opened, and the spray tube was cleaned by spraying 50 ml of water.
(§8) A pot-culture method was employed. For the cultivation of weeds, please refer to the Section 1.2, and “Pesticide guidelines for laboratory bioactivity tests—herbicides”. As to a method for applying agents, please refer to the section 2.3.2, that is, a method for treating stems and leaves was employed.
(§9) A method for investigating absolute number was employed, wherein whole seedlings of survival weeds were cut off with a blade along the soil surface, and the fresh weight of the weeds was weighed with an analytical balance. For dead weeds, the fresh weight thereof was zero.
(§10) The investigation was performed after 20 days of the treatment for only once.
(§11) Wherein, in the formula, X represented the fresh weight inhibition rate of the active ingredient A in a dosage of P, and Y represented the fresh weight inhibition rate of the active ingredient B in a dosage of Q.

Capsella bursa-pastoris = tested on: Capsella bursa-pastoris
Procedure: as §1, §2, §3, §4, §5, §6, §7, §8, §9, §10, §11

Myosoton aquaticum = tested on: Myosoton aquaticum
Procedure: as §1, §2, §3, §4, §5, §6, §7, §8, §9, §10, §11

[1] = Capsella bursa-pastoris, 40 g/hm^2
[2] = Capsella bursa-pastoris, 480 h, read-out: actual fresh weight inhibition rate

COc1nn(C(=O)[N-]S(=O)(=O)c2ccccc2OC(F)(F)F)c(=O)n1C.[Na+] [Flucarbazone-sodium]
actual fresh weight inhibition rate (Alopecurus japonicus; dosage 20 g/hm^2): 69.6% | actual fresh weight inhibition rate (Alopecurus japonicus; dosage 35 g/hm^2): 80.3% | actual fresh weight inhibition rate (Alopecurus japonicus; dosage 50 g/hm^2): 85.6% | actual fresh weight inhibition rate (Capsella bursa-pastoris; dosage 20 g/hm^2): 25.6% | actual fresh weight inhibition rate (Capsella bursa-pastoris; dosage 35 g/hm^2): 42.7% | actual fresh weight inhibition rate (Capsella bursa-pastoris; dosage 50 g/hm^2): 65.1%

Cc1nn(C)cc1C(=O)Oc1c(C(=O)c2ccc(C(F)(F)F)cc2S(C)(=O)=O)c(C)nn1C [active ingredient A]
pest or weed control at 15 g/ha (Myosoton aquaticum; Myosoton aquaticum, 480 h, Myosoton aquaticum (Table 19), 15 g/hm^2, read-out: actual fresh weight inhibition rate): 13.2% | pest or weed control at 30 g/ha (Myosoton aquaticum; Myosoton aquaticum, 480 h, Myosoton aquaticum (Table 19), 30 g/hm^2, read-out: actual fresh weight inhibition rate): 16.5% | pest or weed control at 45 g/ha (Myosoton aquaticum; Myosoton aquaticum, 480 h, Myosoton aquaticum (Table 19), 45 g/hm^2, read-out: actual fresh weight inhibition rate): 24.6% | pest or weed control at 15 g/ha (Myosoton aquaticum; Myosoton aquaticum, 480 h, Myosoton aquaticum, 15 g/hm^2, read-out: actual fresh weight inhibition rate): 67.4% | pest or weed control at 30 g/ha (Myosoton aquaticum; Myosoton aquaticum, 480 h, Myosoton aquaticum, 30 g/hm^2, read-out: actual fresh weight inhibition rate): 87.6% | pest or weed control at 45 g/ha (Myosoton aquaticum; Myosoton aquaticum, 480 h, Myosoton aquaticum, 45 g/hm^2, read-out: actual fresh weight inhibition rate): 100% | pest or weed control at 15 g/ha (Myosoton aquaticum; Myosoton aquaticum, 480 h, dosage 15 g/hm^2, read-out: actual fresh weight inhibition rate): 67.4% | pest or weed control at 30 g/ha (Myosoton aquaticum; Myosoton aquaticum, 480 h, dosage 30 g/hm^2, read-out: actual fresh weight inhibition rate): 87.6% | pest or weed control at 45 g/ha (Myosoton aquaticum; Myosoton aquaticum, 480 h, dosage 45 g/hm^2, read-out: actual fresh weight inhibition rate): 100% | actual fresh weight inhibition rate (Alopecurus japonicus; Alopecurus japonicus, 15 g/hm^2): 13.2% | actual fresh weight inhibition rate (Alopecurus japonicus; Alopecurus japonicus, 30 g/hm^2): 16.5% | actual fresh weight inhibition rate (Alopecurus japonicus; Alopecurus japonicus, 45 g/hm^2): 24.6% | actual fresh weight inhibition rate (Alopecurus japonicus; dosage 15 g/hm^2): 13.2% | actual fresh weight inhibition rate (Alopecurus japonicus; dosage 30 g/hm^2): 16.5% | actual fresh weight inhibition rate (Alopecurus japonicus; dosage 45 g/hm^2): 24.6% | pest or weed control at 15 g/ha (Capsella bursa-pastoris; 480 h, Capsella bursa-pastoris, 15 g/hm^2, read-out: actual fresh weight inhibition rate): 72.3% | pest or weed control at 30 g/ha (Capsella bursa-pastoris; 480 h, Capsella bursa-pastoris, 30 g/hm^2, read-out: actual fresh weight inhibition rate): 90.5% | pest or weed control at 45 g/ha (Capsella bursa-pastoris; 480 h, Capsella bursa-pastoris, 45 g/hm^2, read-out: actual fresh weight inhibition rate): 100%

C[C@@H](Oc1ccc(Oc2ncc(Cl)cc2F)cc1)C(=O)O [clodinafop]
actual fresh weight inhibition rate (Alopecurus japonicus; Alopecurus japonicus, 40 g/hm^2): 81.3% | actual fresh weight inhibition rate (Alopecurus japonicus; Alopecurus japonicus, 65 g/hm^2): 87.4% | actual fresh weight inhibition rate (Alopecurus japonicus; Alopecurus japonicus, 90 g/hm^2): 95.6% | actual fresh weight inhibition rate (Capsella bursa-pastoris; [1]): 0% | actual fresh weight inhibition rate (Capsella bursa-pastoris; Capsella bursa-pastoris, 65 g/hm^2): 0% | actual fresh weight inhibition rate (Capsella bursa-pastoris; Capsella bursa-pastoris, 90 g/hm^2): 0%

COC(=O)c1ccc(CNS(C)(=O)=O)cc1S(=O)(=O)NC(=O)Nc1nc(OC)cc(OC)n1 [mesosulfuron-methyl]
actual fresh weight inhibition rate (Alopecurus japonicus; dosage 6 g/hm^2): 67.9% | actual fresh weight inhibition rate (Alopecurus japonicus; dosage 9 g/hm^2): 73.2% | actual fresh weight inhibition rate (Alopecurus japonicus; dosage 12 g/hm^2): 88.9% | actual fresh weight inhibition rate (Capsella bursa-pastoris; dosage 6 g/hm^2): 24.5% | actual fresh weight inhibition rate (Capsella bursa-pastoris; dosage 9 g/hm^2): 37.6% | actual fresh weight inhibition rate (Capsella bursa-pastoris; dosage 12 g/hm^2): 63.4%

CSc1nnc(C(C)(C)C)c(=O)n1N [metribuzin, reference compound]
actual fresh weight inhibition rate (%) (Myosoton aquaticum; dosage 13.5 g/hm^2): 42.1% | actual fresh weight inhibition rate (%) (Myosoton aquaticum; dosage 25 g/hm^2): 52.9% | actual fresh weight inhibition rate (%) (Myosoton aquaticum; dosage 36.5 g/hm^2): 58.5% | actual fresh weight inhibition rate (%) (Capsella bursa-pastoris; dosage 13.5 g/hm^2): 55.6% | actual fresh weight inhibition rate (%) (Capsella bursa-pastoris; dosage 25 g/hm^2): 64.1% | actual fresh weight inhibition rate (%) (Capsella bursa-pastoris; dosage 36.5 g/hm^2): 82.3%

O=C(Nc1ccc(F)cc1)c1cccc(Oc2cccc(C(F)(F)F)c2)n1 [picolinafen]
actual fresh weight inhibition rate (Myosoton aquaticum; Myosoton aquaticum, 40 g/hm^2): 14.5% | actual fresh weight inhibition rate (Myosoton aquaticum; Myosoton aquaticum, 80 g/hm^2): 34.9% | actual fresh weight inhibition rate (Myosoton aquaticum; Myosoton aquaticum, 120 g/hm^2): 50.5% | actual fresh weight inhibition rate (Capsella bursa-pastoris; [1]): 16.4% | actual fresh weight inhibition rate (Capsella bursa-pastoris; Capsella bursa-pastoris, 80 g/hm^2): 33.2% | actual fresh weight inhibition rate (Capsella bursa-pastoris; Capsella bursa-pastoris, 120 g/hm^2): 55.6%

CCc1cc(C)cc(CC)c1-c1c(OC(=O)C(C)(C)C)n2n(c1=O)CCOCC2 [pinoxaden]
actual fresh weight inhibition rate (Alopecurus japonicus; dosage 60 g/hm^2): 69.2% | actual fresh weight inhibition rate (Alopecurus japonicus; dosage 80 g/hm^2): 78.6% | actual fresh weight inhibition rate (Alopecurus japonicus; dosage 120 g/hm^2): 85.2% | pest or weed control at 60 g/ha (Capsella bursa-pastoris; Capsella bursa-pastoris, 480 h, dosage 60 g/hm^2, read-out: actual fresh weight inhibition rate): 0% | pest or weed control at 80 g/ha (Capsella bursa-pastoris; Capsella bursa-pastoris, 480 h, dosage 80 g/hm^2, read-out: actual fresh weight inhibition rate): 0% | pest or weed control at 120 g/ha (Capsella bursa-pastoris; Capsella bursa-pastoris, 480 h, dosage 120 g/hm^2, read-out: actual fresh weight inhibition rate): 0%

CSc1nc(NC(C)C)nc(NC(C)C)n1 [prometryn]
pest or weed control at 150 g/ha (Myosoton aquaticum; Myosoton aquaticum, 480 h, Myosoton aquaticum, 150 g/hm^2, read-out: actual fresh weight inhibition rate): 22.6% | pest or weed control at 450 g/ha (Myosoton aquaticum; Myosoton aquaticum, 480 h, Myosoton aquaticum, 450 g/hm^2, read-out: actual fresh weight inhibition rate): 33.7% | pest or weed control at 750 g/ha (Myosoton aquaticum; Myosoton aquaticum, 480 h, Myosoton aquaticum, 750 g/hm^2, read-out: actual fresh weight inhibition rate): 45.2% | pest or weed control at 150 g/ha (Capsella bursa-pastoris; 480 h, Capsella bursa-pastoris, 150 g/hm^2, read-out: actual fresh weight inhibition rate): 20.4% | pest or weed control at 450 g/ha (Capsella bursa-pastoris; 480 h, Capsella bursa-pastoris, 450 g/hm^2, read-out: actual fresh weight inhibition rate): 29.6% | pest or weed control at 750 g/ha (Capsella bursa-pastoris; 480 h, Capsella bursa-pastoris, 750 g/hm^2, read-out: actual fresh weight inhibition rate): 45.7%

COc1cc(OC)n2nc(NS(=O)(=O)c3c(C(F)(F)F)ccnc3OC)nc2n1 [pyroxsulam]
actual fresh weight inhibition rate (Alopecurus japonicus; dosage 5 g/hm^2): 63.5% | actual fresh weight inhibition rate (Alopecurus japonicus; dosage 10 g/hm^2): 81.9% | actual fresh weight inhibition rate (Alopecurus japonicus; dosage 15 g/hm^2): 91.5% | actual fresh weight inhibition rate (Capsella bursa-pastoris; dosage 5 g/hm^2): 19.4% | actual fresh weight inhibition rate (Capsella bursa-pastoris; dosage 10 g/hm^2): 31.7% | actual fresh weight inhibition rate (Capsella bursa-pastoris; dosage 15 g/hm^2): 55.6%

CCNc1nc(NC(C)(C)C)nc(SC)n1 [terbutryn]
pest or weed control at 125 g/ha (Myosoton aquaticum; Myosoton aquaticum, 480 h, Myosoton aquaticum, 125 g/hm^2, read-out: actual fresh weight inhibition rate): 13.4% | pest or weed control at 275 g/ha (Myosoton aquaticum; Myosoton aquaticum, 480 h, Myosoton aquaticum, 275 g/hm^2, read-out: actual fresh weight inhibition rate): 29.3% | pest or weed control at 425 g/ha (Myosoton aquaticum; Myosoton aquaticum, 480 h, Myosoton aquaticum, 425 g/hm^2, read-out: actual fresh weight inhibition rate): 33.9% | pest or weed control at 125 g/ha (Capsella bursa-pastoris; 480 h, Capsella bursa-pastoris, 125 g/hm^2, read-out: actual fresh weight inhibition rate): 15.4% | pest or weed control at 275 g/ha (Capsella bursa-pastoris; 480 h, Capsella bursa-pastoris, 275 g/hm^2, read-out: actual fresh weight inhibition rate): 25.3% | pest or weed control at 425 g/ha (Capsella bursa-pastoris; 480 h, Capsella bursa-pastoris, 425 g/hm^2, read-out: actual fresh weight inhibition rate): 40.9%

CCO/N=C(\CC)C1=C(O)CC(c2c(C)cc(C)cc2C)CC1=O (stereo not drawn) [tralkoxydim]
actual fresh weight inhibition rate (Alopecurus japonicus; Alopecurus japonicus, 240 g/hm^2): 74.5% | actual fresh weight inhibition rate (Alopecurus japonicus; Alopecurus japonicus, 360 g/hm^2): 81.2% | actual fresh weight inhibition rate (Alopecurus japonicus; Alopecurus japonicus, 480 g/hm^2): 89.8% | pest or weed control at 240 g/ha (Capsella bursa-pastoris; [2]): 0% | pest or weed control at 360 g/ha (Capsella bursa-pastoris; [2]): 0% | pest or weed control at 480 g/ha (Capsella bursa-pastoris; [2]): 0%

dimethylammonium 4-chloro-o-tolyloxyacetate [MCPA-dimethylammonium, reference compound]
actual fresh weight inhibition rate (%) (Myosoton aquaticum; dosage 550 g/hm^2): 26.7% | actual fresh weight inhibition rate (%) (Myosoton aquaticum; dosage 950 g/hm^2): 33.1% | actual fresh weight inhibition rate (%) (Myosoton aquaticum; dosage 1350 g/hm^2): 47.2% | actual fresh weight inhibition rate (%) (Capsella bursa-pastoris; dosage 550 g/hm^2): 29.2% | actual fresh weight inhibition rate (%) (Capsella bursa-pastoris; dosage 950 g/hm^2): 43.6% | actual fresh weight inhibition rate (%) (Capsella bursa-pastoris; dosage 1350 g/hm^2): 59.2%
